Results: patent US20230381170A1, “METHOD FOR TREATING ALS/FTD THROUGH DEGRADATION OF RNA REPEAT EXPANSION” (University of Florida Research Foundation, Incorporated, priority 2020, published 2023)

Experiments:
Poly(GP) = test: poly(GP) in c9ALS iPSC-derived spinal neurons; format: cell-based, human
Procedure: iPSCs were differentiated into spinal neuron cells using a previously the previously described direct induced motor neuron (diMNs) differentiation protocol (58) with modifications. Briefly, iPSCs were plated into Matrigel-coated 100 mm dishes (30-40% confluence). Neuroepithelial induction was performed by replacing the iPSC maintenance medium with Stage 1 medium [47.5% IMDM (Iscove's Modified Dulbecco's Medium) medium, 47.5% F12 medium, 1% NEAA (Non-Essential Amino Acid) (Life Technologies), 2% B27 (Invitrogen), 1% N2, 1% PSA (Penicillin-Streptomycin-Amphotericin), 0.2 μM LDN193189 (Stemgent), 10 μM SB431542 ([…] Technologies) and 3 μM CHIR99021 (Sigma-Aldrich)]. After daily medium changes for 6 days, cells were detached with Accutase and seeded into 6-well plates (1.5×10^6 cells/well) in 3 mL Stage 2 medium. […]
Measuring Poly(GP) Levels by Electrochemiluminescence. […] Protein concentration was measured by Pierce™ BCA Protein Assay Kit.
Levels of poly(GP) were measured using Meso Scale Discovery MSD Gold 96-well Streptavidin SECTOR plates. […] The conjugated antibodies were desalted with 40K Zeba™ Spin Desalting Columns (Thermo Fisher Scientific), and their concentrations were determined by Pierce™ BCA Protein Assay Kit. […]

C9orf72 transcripts = test: C9orf72 variants by RT-qPCR in brain of +/+PWR500 C9orf72 BAC mice; format: in vivo, mouse; conditions: three weeks
Procedure: Therapeutic Efficacy in a c9ALS/FD mouse model. All animal studies were completed as approved by the Scripps Florida Institutional Animal Care and Use Committee. A total of 24 mice (12+/+PWR500 [7 Male and 5 Female] and 12 WT [6 Male and 6 Female]) mice, age- and gender-matched and ranging in age from 18-22 weeks old were used in therapeutic efficacy studies (Table 6). Mice were anesthetized by intraperitoneal (i.p.) injection of 10 mg/mL Ketamine:1 mg/mL Xylazine solution. Intracerebroventricular (ICV) stereotactic injections of 10 μL of 7 (33 nmol) were administered into the right ventricle using the following coordinates: 0.2 mm posterior and 1.0 mm lateral to the right from the bregma and 3 mm deep. Mice were treated with 7 or vehicle consisting of 1% DMSO in Saline. Three weeks post-treatment, mice were euthanized, and tissue was harvested for study.
Measuring C9orf72 Variants by RT-qPCR. Postmortem brain tissue was harvested and sliced along the midline. The left hemisphere was frozen for RNA and protein analysis. The left hemisphere of each brain was homogenized in 300 μL ice cold Tris-EDTA buffer with 2× protease inhibitors. 150 μL of homogenized tissue was used for RNA extraction. 450 μL of triazol LS was added to the homogenized tissue and centrifuged for 15 min at 16,000 rpm. Following centrifugation, supernatant was collected and an equal volume (600 μL) of 100% ethanol was added and mixed thoroughly. RNA was purified using a Direct-zol RNA Kit (Zymo Research) per the manufacturer's protocol. RT-qPCR was performed as described above. Expression levels of mRNAs were normalized to mouse (3-actin. See Table 2 for a list of primers. Statistical analysis was measured using an unpaired t-test with Welch's correction.

CCOC(=O)C1=C(Nc2ccccc2)S/C(=C\c2ccc(OCCOCCOCCOCCNC(=O)CCC(=O)N(CCOCCOCCOc3ccc4[nH]c5c(C)c6ccncc6c(C)c5c4c3)CCOCCOCCOc3ccc4[nH]c5c(C)c6ccncc6c(C)c5c4c3)c(O)c2)C1=O [Compound 7] was tested, and the “abundance of poly(GP)” value (Poly(GP)) was “significant (P<0.05) reduction”, the “C9orf72 exon 1b RNA levels” value (C9orf72 transcripts; 33 nmol ICV) was “not altered” and the “all C9orf72 transcripts (exon 2-exon 3 junction)” value (C9orf72 transcripts; 33 nmol ICV) was “reduced”. The “reduction of r(G4C2)exp-containing intron 1 mRNA” value (C9orf72 transcripts; 33 nmol single ICV injection, compared to vehicle) was 44±22%.
